Series [1] has as its target T1, beta amyloid peptide Aβ(1-40) (Homo sapiens, UniProt P05067).
T1 construct: 0.5 mg/mL AP (140) peptide in 20% HFIP+0.1 μL/assay radioiodinated ^125I Aβ(1-40)
Briefly: BAPA (Beta-Amyloid Peptide Aggregation), pH 6.0. The class given is biochemical. Conditions: Aβ(1-40) 33 μM, pH 6.0, 2 to 4 hours at room temperature, filtration. The procedure, abridged: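 HFIP-monomerised Aβ(1-40) with ^125I Aβ(1-40) tracer in 50 mM phosphate pH 6.0, DMSO <1%, incubated 2 to 4 h at room temperature. Aggregates collected by 0.2 μm filtration and counted by scintillation, background-corrected.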

Series [2] addresses T2, Aβ(1-40) (Homo sapiens, UniProt P05067).
T2 construct: Soluble Aβ(1-40) peptide (Bachem, Torrance, Calif.); purchased Bachem, Torrance, Calif
Description: BASST (Beta-Amyloid Self-Seeding, ThioflavinT), inhibitors of self-seeded amyloid fibril growth. As to conditions: 30 μM soluble Aβ(1-40), pH 7.5, 37° C., 3 to 5 hours, thioflavin T fluorescence. The series is classed as biochemical. A digest of the protocol: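 Self-seeded soluble Aβ(1-40) at 30 μM was mixed on ice with compound (3-fold dilutions, top 100 μM final; DMSO <1%) in pH 7.5 phosphate buffer with 1 M urea. After 10 min on ice, mixtures were incubated 3 to 5 hours at 37° C. Fibril growth was read as thioflavin T fluorescence (ex 440/em 485).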

The target of the next series is T3, Aβ(1-42) (Homo sapiens, UniProt P05067).
T3 construct: Required Aβ(1-42)(California Peptide) was dried from its hexafluoroisopropanol (HFIP) stock solution; purchased California Peptide
Description: BATYM Assay (Aβ(1-42) aggregation, Thioflavin T fluorescence). The class given is biochemical. As to conditions: Aβ 1-42 final concentration 100 μM, PBS pH 7.4, 37° C., 1 day, ThT fluorescence. A digest of the protocol: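 HFIP-dried Aβ(1-42), redissolved in DMSO/PBS pH 7.4 and filtered, was incubated at 100 μM final with compound (2% DMSO) for 1 day at 37° C. Aggregation read by ThT (30 μM, glycine-NaOH pH 8.5) fluorescence, ex 440/em 485 nm; inhibition corrected for compound blank, IC50 by curve fit, two experiments in triplicate.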

Series [3] concerns the target T2, Aβ(1-40). Description: BASSR (Beta-Amyloid Self-Seeding Radioassay), inhibitors of self-seeded amyloid fibril growth. The series is classed as biochemical. Conditions: 30 μM soluble Aβ(1-40) + 125I-labeled Aβ(1-40), pH 7.5, 37° C., 3 to 5 hours, filtration. The procedure, abridged:
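Self-seeding growth of fibrils from 30 μM soluble human Aβ(1-40) plus ^125I-labeled Aβ(1-40) was run in 50 mM sodium phosphate pH 7.5, 100 mM NaCl, 1 M urea, with compound as serial 3-fold dilutions from 100 μM final, DMSO <1%. After 10 min on ice and 3 to 5 hours at 37° C., fibrils were filter-collected and radioactivity counted.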

T3 sequence (P05067 672-713 limits assumed): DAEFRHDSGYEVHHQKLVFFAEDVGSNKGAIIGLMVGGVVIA
T2 sequence (P05067 672-711 limits assumed): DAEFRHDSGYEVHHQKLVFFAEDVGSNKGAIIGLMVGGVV
T1 sequence (P05067 672-711 limits assumed): as above

What is called IC50 is the concentration needed to halve the response being measured. For orientation: melting point means the temperature of the solid-liquid transition. Consider `CCCC1CCN(c2ccc(/C=C3\SC(=S)N(CC(=O)NS(C)(=O)=O)C3=O)cc2)CC1` [Example 37, (Z) N-(2-{4-Oxo-5-[4-(4-propyl-piperidin-1-yl)-benzylidene]-2-thioxo-thiazolidin-3-yl}-acetyl)methanesulfonamide], for which the melting point was 254 °C. The compound also displayed an IC50 in series [1] of over 60 µM. In addition, the 50% inhibitory concentration (IC50) on Aβ(1-40) [2] stood at 0.4 µM. Further, it took 3.83 µM to reach half-maximal inhibition against Aβ(1-42) (IC50). At Aβ(1-40) [3], the IC50 was 50 µM.
The matching figures for `CCCCCN(CCCCC)c1ccc(/C=C2\SC(=S)N(CC(=O)NS(C)(=O)=O)C2=O)cc1` [Example 6, (Z) N-{5-[4-(Dipentylamino-benzylidene)4-oxo-2-thioxo-thiazolidin-3-yl]-acetyl}-methanesulfonamide]: 134 to 138 °C, 3 µM, 28.5 µM, 2.92 µM and over 100 µM.
The matching figures for `O=C(NS(=O)(=O)CCN1C(=O)/C(=C/c2ccc(N3CCC4CCCCC4C3)cc2)SC1=S)c1ccccc1` (stereo not shown) [Example 29, (Z) 2-{5-[4-(Octahydro-isoquinolin-2-yl)-benzylidene]-4-oxo-2-thioxo-thiazolidin-3-yl}-ethanesulfonic acid benzoylamide]: 213 °C, over 100 µM, 0.6 µM, 3.42 µM and 11 µM.
The matching figures for `CCCCCCN(C)c1ccc(/C=C2\SC(=S)N(CCNS(=O)(=O)c3ccccc3)C2=O)cc1` [Example 11, (Z) N(2-{5-[4-(Hexyl-methyl-amino)benzylidene]-4-oxo-2-thioxo-thiazolidin-3-yl}-ethyl)-benzenesulfonamide]: 152 to 155 °C, 25 µM, 9 µM, 2.19 µM and over 100 µM.
Compound `CCCCCCN(C)c1ccc(/C=C2\SC(=S)N(CCNC(=O)C(F)(F)F)C2=O)cc1` [Example 13, (Z) 2,2,2-Trifluoro-N-(2-{5-[4(hexyl-methyl-amino)benzylidene]-4-oxo-2-thioxo-thiazolidin-3-yl}-ethyl)-acetamide] registered a melting point of 136 to 139 °C. Besides, the IC50 in series [1] is 28 µM. Further, the IC50 against Aβ(1-40) [2] turned out to be 10 µM. The same compound showed an IC50 on Aβ(1-42) of 3.5 µM. Further, the half-inhibitory concentration (IC50) on Aβ(1-40) [3] is over 100 µM.
The matching figures for `CCCCN(CCCC)c1ccc(/C=C2\SC(=S)N(CC(=O)NS(=O)(=O)c3ccccc3)C2=O)cc1` [Example 19, (Z) N-{[5-(4-Dibutylamino-benzytidene)-4-oxo-2-thioxo-thiazolidin-3-yl]-acetyl}-benzenesulfonamide]: 112 to 115 °C, 129 µM, 1.1 µM, 1.77 µM and 5 µM.
The matching figures for `CCCCN(CCCC)c1ccc(/C=C2\SC(=S)N(Cc3cc(=O)c(O)co3)C2=O)cc1` [Example 33, (Z) 5-(4-Dibutylamino-benzylidene)-3-(5-hydroxy-4-oxo-4H-pyran-2-ylmethyl)-2-thioxo-thiazolidin-4-one]: 226 to 227 °C, over 60 µM, 2 µM, 3.03 µM and over 100 µM.
The matching figures for `O=C(NS(=O)(=O)CCN1C(=O)/C(=C/c2ccc(N3CCC4CCCCC4C3)cc2)SC1=S)c1ccc(F)cc1` (stereo not shown) [Example 30, (Z) 2-{5-[4(Octahydro-isoquinolin-2-yl)benzylidene]-4-oxo-2′-thioxo-thiazolidin-3-yl}-ethanesulfonic acid 4-fluoro-benzoylamide]: 248 °C, over 60 µM, 0.3 µM, 2.26 µM and over 100 µM.
As for `CCCCCCN(C)c1ccc(/C=C2\SC(=S)N(CC(=O)NS(C)(=O)=O)C2=O)cc1` [Example 5, (Z) N-({5-[4-(Hexyl-methyl-amino)-benzylidene]4-oxo-2-thioxo-thiazolidin-3-yl}-acetyl)methanesulfonamide], the melting point fell in the range of 227 to 230 °C. The IC50 in series [1] was over 10 µM. At Aβ(1-40) [2], this compound came in with a half-maximal inhibitory concentration (IC50) of 0.8 µM. For the same compound, the IC50 at Aβ(1-42) came out at 1.83 µM. On Aβ(1-40) [3], the IC50 amounted to 9 µM.
The matching figures for `CCCCCN(CCCCC)c1ccc(/C=C2\SC(=S)N(CC(=O)NS(=O)(=O)c3ccc(F)cc3)C2=O)cc1` [Example 27, (Z) N-{2-[5-(4-Dipentylamino-benzylidene)-4-oxo-2-thioxo-thiazolidin-3-yl]-acetyl}-4-fluoro-benzenesulfonamide]: 130 to 132 °C, 93 µM, 2 µM, 2.02 µM and 7 µM.
The matching figures for `CCCC1CCN(c2ccc(/C=C3\SC(=S)N(CC(=O)NS(=O)(=O)c4ccccc4)C3=O)cc2)CC1` [Example 36, (Z) N-(2-{4-Oxo-5-[4-(4-propyl-piperidin-1-yl)-benzylidene]-2-thioxo-thiazolidin-3-yl}-acetyl)benzenesulfonamide]: 201 °C, over 60 µM, 1 µM, 3.3 µM and over 100 µM.

For the origin of these results see US20040197268A1, “Method of imaging amyloid deposits using substituted rhodanine derivatives” (priority 1999, published 2004).
